From US20260015363A1, “SUBSTITUTED PYRIMIDINE-FUSED RING INHIBITOR, METHOD FOR PREPARING SAME, AND USE THEREOF” (Suzhou Zelgen Biopharmaceuticals Co., Ltd., priority 2022, published 2026)

Experiments:
SW480 (G12V) = assay: KRAS mutant cell proliferation inhibition assay (CellTiter-Glo 3D), SW480; type: cell-based; conditions: Homo sapiens, 168 h, SW480 (G12V) cells, 7 days
Procedure: (§1) Positive control: MRTX1133
(§2) • (a) The cells were thawed in T75 cell culture flasks: • (b) When 80%-90% cell confluence was achieved, the cells were passaged.
(§3) The diluted test compound was added to a 384-well cell culture plate using a nanoliter pipetting system, and replicate wells were set. An equal volume of medium was added to the positive control group; an equal volume of DMSO was added to the negative control group. The plate was centrifuged at 1000 rpm at room temperature for 1 min.
(§4) The cells were seeded into a) 384-well culture plate. An equal volume of cells was added to the negative control group, and only an equal volume of medium was added to the positive control group. The plate was centrifuged at 1000 rpm at room temperature for 1 min. The final DMSO concentration in the final compound was 0.5%. The plate was incubated in a thermostatic incubator at 37° C. with 5% CO2 for 7 days.
(§5) CellTiter-Glo® 3D was added to b) 384-well cell culture plate at 20 μL/well. The plate was shaken at 320 rpm in the dark for 20 min, and incubated at room temperature in the dark for 2 h. The luminescence values were read using an Envision multi-mode microplate reader.
(§6) The inhibition rates (IRs) of the test compounds were calculated according to the following formula: IR (%)=(1−(RLU compound−RLU blank control)/(RLU vehicle control−RLU blank control))×100%. The inhibition rates of the compounds at different concentrations were calculated in Excel, and then inhibition curves were plotted and relevant parameters including minimum inhibition rate, maximum inhibition rate and IC50 were calculated using GraphPad Prism software.

MNK1 (WT) = assay: Cell proliferation inhibition assay (CellTiter-Glo 3D), MNK1; type: cell-based, human; conditions: Homo sapiens, 168 h, MNK1 (WT) cells, 7 days
Procedure: as §1, §2, §3, §4, §5, §6

PSN-1 (G12R) = assay: KRAS mutant cell proliferation inhibition assay (CellTiter-Glo 3D), PSN-1; type: cell-based; conditions: Homo sapiens, PSN1, 168 h, PSN-1 (G12R) cells, 7 days
Procedure: as §1, §2, §3, §4, §5, §6

AsPC-1 (G12D) = assay: KRAS mutant cell proliferation inhibition assay (CellTiter-Glo 3D), AsPC-1; type: cell-based, human; conditions: Homo sapiens, ASPC1, 168 h, AsPC-1 (G12D) cells, 7 days
Procedure: as §1, §2, §3, §4, §5, §6

H727 (G12V) = assay: KRAS mutant cell proliferation inhibition assay (CellTiter-Glo 3D), H727; type: cell-based, human; conditions: Homo sapiens, NCI-H727, 168 h, H727 (G12V) cells, 7 days
Procedure: as §1, §2, §3, §4, §5, §6

| SMILES | IC50 (SW480 (G12V)) | IC50 (MNK1 (WT)) | IC50 (PSN-1 (G12R)) | IC50 (AsPC-1 (G12D)) | IC50 (H727 (G12V)) |
| --- | --- | --- | --- | --- | --- |
| C#Cc1c(F)ccc2cc(O)cc(-c3ncc4c(N5CC6CCC(C5)N6)nc(OC[C@@]56CCCN5C[C@H](F)C6)nc4c3F)c12 [MRTX1133, reference compound] | 432 nM | 319 nM | > 10000 nM | 10.1 nM | 2270 nM |
| CCc1c(F)ccc2cc(O)cc(-c3ncc4c(N5CCCC6(CCO6)C5)nc(OC[C@@]56CCCN5C[C@@]5(CC5(F)F)C6)nc4c3F)c12 (stereo partly drawn) [Example A-16, 4-(2-(((1S,7a'S)-2,2-Difluorodihydro-1′H,3′H-spiro[cyclopropane-1,2′-pyrrolizin]-7a′ (5′H)-yl)methoxy)-8-fluoro-4-(1-oxa-6-azaspiro[3.5]nonan-6-yl)pyrido[4,3-d]pyrimidin-7-yl)-5-ethyl-6-fluoronaphthalen-2-ol] | 68.2 nM | 22.7 nM | 1000 nM | 11.4 nM | 45.1 nM |
| CN(C)C(=O)c1cc2n(n1)CCCN(c1nc(OC[C@@]34CCCN3C[C@@]3(CC3(F)F)C4)nc3c(F)c(-c4cc(N)cc(Cl)c4C(F)(F)F)ncc13)C2 [Example A-25, 5-(7-(5-Amino-3-chloro-2-(trifluoromethyl)phenyl)-2-(((1S,7a'S)-2,2-difluorodihydro-1′H,3′H-spiro[cyclopropane-1,2′-pyrrolizin]-7a′ (5′H)-yl)methoxy)-8-fluoropyrido[4,3-d]pyrimidin-4-yl)-N,N-dimethyl-5,6,7,8-tetrahydro-4H-pyrazolo[1,5-a][1,4]diazepine-2-carboxamide] | – | 66.3 nM | > 10000 nM | 33.6 nM | 141 nM |
| CCc1c(F)ccc2cc(O)cc(-c3ncc4c(N5CCCn6nc(C(=O)N(C)C)cc6C5)nc(OC[C@@]56CCCN5C[C@@]5(CC5(F)F)C6)nc4c3F)c12 [Example A-24, 5-(2-(((1S,7a'S)-2,2-Difluorodihydro-1′H,3′H-spiro[cyclopropane-1,2′-pyrrolizin]-7a′ (5′H)-yl)methoxy)-7-(8-ethyl-7-fluoro-3-hydroxynaphthalen-1-yl)-8-fluoropyrido[4,3-d]pyrimidin-4-yl)-N,N-dimethyl-5,6,7,8-tetrahydro-4H-pyrazolo[1,5-a][1,4]diazepine-2-carboxamide] | – | 19.7 nM | > 10000 nM | 11.1 nM | 101 nM |
| Nc1cc(Cl)c(C(F)(F)F)c(-c2ncc3c(N4CCCC5(CCO5)C4)nc(OC[C@@]45CCCN4C[C@@]4(CC4(F)F)C5)nc3c2F)c1 (stereo partly drawn) [Example A-14, 3-Chloro-5-(2-(((1S,7a'S)-2,2-difluorodihydro-1′H,3′H-spiro[cyclopropane-1,2′-pyrrolizin]-7a′ (5′H)-yl)methoxy)-8-fluoro-4-(1-oxa-6-azaspiro[3.5]nonan-6-yl)pyrido[4,3-d]pyrimidin-7-yl)-4-(trifluoromethyl)aniline] | – | 133 nM | > 10000 nM | 61.1 nM | 242 nM |
| CCc1c(F)ccc2cc(O)cc(-c3ncc4c(N5CCOCC(C)(O)C5)nc(OC[C@@]56CCCN5C[C@@]5(CC5(F)F)C6)nc4c3F)c12 (stereo partly drawn) [Example A-38, 4-(2-(((1S,7a'S)-2,2-Difluorodihydro-1′H,3′H-spiro[cyclopropane-1,2′-pyrrolizin]-7a′ (5′H)-yl)methoxy)-7-(8-ethyl-7-fluoro-3-hydroxynaphthalen-1-yl)-8-fluoropyrido[4,3-d]pyrimidin-4-yl)-6-methyl-1.4-oxazenan-6-ol] | – | 21.4 nM | > 10000 nM | 31.6 nM | 119 nM |
| CC1(O)COCCN(c2nc(OC[C@@]34CCCN3C[C@@]3(CC3(F)F)C4)nc3c(F)c(-c4cc(N)cc(Cl)c4C(F)(F)F)ncc23)C1 (stereo partly drawn) [Example A-39, 4-(7-(5-Amino-3-chloro-2-(trifluoromethyl)phenyl)-2-(((1S,7a'S)-2,2-difluorodihydro-1′H,3′H-spiro[cyclopropane-1,2′-pyrrolizin]-7a′ (5′H)-yl)methoxy)-8-fluoropyrido[4,3-d]pyrimidin-4-yl)-6-methyl-1.4-oxazenan-6-ol] | – | 273 nM | > 10000 nM | 293 nM | 604 nM |
